Measured values reported in PubChem BioAssay AID1963968 (Molecular Pharmacology Branch, DTP, NCI, 2024).
Several values for one entry are separate records, joined by “and”; a condition that tells them apart may be missing. Equal entries are not always repeated.

Tested on: 945468-187-T-J3-PDC spheroids with HUVEC/MSC, viability
Experiment: Anticancer human tumor 945468-187-T-J3-PDC patient-derived rectal carcinoma cell line growth inhibition [PI3K]
Details: for viability, T/C: stronger effect = lower value
Excerpt: Combinatorial screen of targeted agents with the PI3K inhibitors inavolisib, alpelisib, duvelisib, and copanlisib in multi-cell type tumor spheroids
A high-throughput screen of multi-cell type tumor spheroids was designed to identify active combinations of targeted small molecules and PI3K pathway inhibitors. Complex spheroids include a stromal component modeled by human endothelial cells (HUVEC) and fibroblasts modeled by human mesenchymal stem cells (MSCs). The concentration ranges selected for each drug and investigational agent were based upon clinically achievable concentrations if the clinical Cmax of the agent was known.
Compounds. The drugs and investigational agents: inavolisib (NSC800729), alpelisib (NSC765974), duvelisib (NSC772469), copanlisib (NSC816437), ipatasertib (NSC767898), afuresertib (NSC778305), talazoparib (NSC767125), sapanisertib (NSC764658), selumetinib (NSC741078), tovorafenib (DAY101, NSC766906), vemurafenib (NSC761431), ravoxertinib (NSC781343), sotorasib (NSC818433), MRTX1133 (NSC 836407), abemaciclib (NSC 768073), palbociclib (NSC758247), venetoclax (NSC 766270), SY5609 (NSC837396), enzalutamide (NSC755605), and darolutamide (NSC825331), were obtained from the National Cancer Institute (NCI) Developmental Therapeutics Program Chemical Repository. The FDA-approved anticancer drug set is available from the NCI Developmental Therapeutics Program. […] The stock solutions were prepared in dimethyl sulfoxide (DMSO, Sigma-Aldrich, St. Louis, MO, cat. D2650) at 800-fold the tested concentration and stored at -70 degrees C prior to their use. All drugs and investigational agents were tested over a range starting from a high concentration at or near the clinical Cmax and decreasing in half-log increments. If the clinical Cmax for an agent had not been determined, the highest concentration tested was 10 microM.
Cell Culture. All cells were maintained in an incubator at 37 degrees C and 5% CO2 with 95% humidity. The PDC lines were cultured according to standard operating procedures established by the NCI PDMR (https://pdmr.cancer.gov/sops/default.htm). All PDCs were thawed and cultured in Matrigel-coated flasks prepared with a working solution of 1X Ham's F-12 nutrient mix, without supplementation (Invitrogen, Waltham, MA, cat. 11765054), 100 U/mL penicillin-streptomycin (Invitrogen, cat. 15140122), and 2.5% Matrigel (Corning Inc., Corning, NY, cat. 354248) for the first three passages. The 354836-022-R-J1-PDC, 475296-252-R-J1-PDC, and 997726-040-R-J2-PDC lines were cultured in 6A media, which includes advanced DMEM/F-12 (Thermo Fisher Scientific, cat. 12634028), 10 mM HEPES (Thermo Fisher Scientific, cat. 15630080), 1X GlutaMAX supplement (Thermo Fisher Scientific, cat. 35050061), 0.1 mg/mL primocin (InvivoGen, San Diego, CA, cat. ant-pm-2), 10% defined fetal bovine serum, heat inactivated (HyClone Laboratories Inc., Logan, UT, cat. SH30070.03HI), 50% L-WRN conditioned media (ATCC, cat. CRL-3276), 1.25 mM N-Acetyl-L-cysteine (Sigma-Aldrich, cat. A9165), 10 mM nicotinamide (Sigma-Aldrich, cat. N0636), 1X B-27 supplement (Thermo Fisher Scientific, cat. 17504044), 1X N-2 supplement (Thermo Fisher Scientific, cat. 17502048), and 10 microM Y-27632 dihydrochloride (Tocris Bioscience, Bristol, United Kingdom, cat. 1254). The 624824-186-R-J2-PDC line was cultured in 6C/Colon 1B media, which includes all 6A media components plus 50 ng/mL human EGF recombinant protein (Thermo Fisher Scientific, cat. PHG0311). […]

[1] = compound alone, run of 06/12/2023
[2] = compound alone, run of 06/13/2023
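Further: spheroids exposed to agents for 7 days before viability read.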
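Wherever viability, T/C is given: 100% = DMSO vehicle control viability.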

Row | Compound | viability, T/C (compound 0.0316 µM) | viability, T/C (compound 0.1 µM) | viability, T/C (compound 0.316 µM) | viability, T/C (compound 1 µM) | viability, T/C (compound 3.16 µM) | viability, T/C (compound 10 µM) | IC50 (curve of compound) | viability, T/C (compound 0.00316 µM) | viability, T/C (compound 0.01 µM) | further results
1 | C#Cc1c(F)ccc2cc(O)cc(-c3ncc4c(N5CC6CCC(C5)N6)nc(OCC56CCCN5CC(F)C6)nc4c3F)c12 (configuration not stated) | 96.4% [middle of 4 runs] | 95.8% [middle of 4 runs] | 98.2% [middle of 4 runs] | 114% (2×) and 95.9% and 89.8% | 125% [middle of 4 runs] | 113% [middle of 4 runs] | > 10 µM |  |  | 
2 | C=CC(=O)N1CCN(c2nc(=O)n(-c3c(C)ccnc3C(C)C)c3nc(-c4c(O)cccc4F)c(F)cc23)C(C)C1 (configuration not stated) | 99.2% and 94% and 95.5% | 97.8% and 105% and 93.8% | 103% and 94.5% and 98.7% | 85.6% and 92.5% and 98.2% | 88.8% and 100% and 113% | 98.1% and 103% and 116% | > 10 µM |  |  | 
3 | CC(=O)c1c(C)c2cnc(Nc3ccc(N4CCNCC4)cn3)nc2n(C2CCCC2)c1=O | 113% [middle of 4 runs] | 103% (2×) and 106% and 99.3% |  |  |  |  | > 0.1 µM | 83.2% and 102% (2×) and 91.3% | 93.4% [middle of 4 runs] | viability, T/C (compound 0.000316 µM): 101% [middle of 4 runs]; viability, T/C (compound 0.001 µM): 100% [middle of 4 runs]
4 | CC(C)NCC(C(=O)N1CCN(c2ncnc3c2C(C)CC3O)CC1)c1ccc(Cl)cc1 (configuration not stated) | 92.6% [middle of 4 runs] |  | 100% [middle of 4 runs] | 94.6% [middle of 4 runs] | 65.2% [middle of 4 runs] | 39.3% [middle of 4 runs] |  |  |  | 
5 | CC(C)n1nc(-c2ccc3oc(N)nc3c2)c2c(N)ncnc21 |  |  |  |  |  |  | > 0.1 µM and 0.0939 µM | 104% [middle of 4 runs] | 102% [middle of 4 runs] | viability, T/C (compound 0.000316 µM): 91.3% [middle of 4 runs]; viability, T/C (compound 0.001 µM): 94.2% [middle of 4 runs]
6 | CC(Cn1ccc(-c2ccc(C#N)c(Cl)c2)n1)NC(=O)c1cc(C(C)O)[nH]n1 (configuration not stated) | 89.7% [middle of 4 runs] | 97.5% [middle of 4 runs] | 94.9% [middle of 4 runs] | 99.5% [middle of 4 runs] | 114% [middle of 4 runs] | 89.8% and 101% (2×) and 99% | > 10 µM |  |  | 
7 | CC(Nc1ccc2c(c1)OCCn1cc(N3C(=O)OCC3C(F)F)nc1-2)C(N)=O (configuration not stated) | 99.6% [middle of 7 runs] |  | 99.6% [middle of 7 runs] | 73% [middle of 7 runs] |  |  |  | 103% [middle of 7 runs] | 97.2% [middle of 7 runs] | IC50 [1]: > 1 µM
8 | CC(Nc1ncnc2nc[nH]c12)c1cc2cccc(Cl)c2c(=O)n1-c1ccccc1 (configuration not stated) | 100% [middle of 8 runs] | 96% [middle of 8 runs] | 96% [middle of 8 runs] | 99.5% [middle of 8 runs] | 98.2% [middle of 8 runs] | 98.8% [middle of 8 runs] |  |  |  | IC50 [2]: > 10 µM
9 | CC1(C)CCC(CN2CCN(c3ccc(C(=O)NS(=O)(=O)c4ccc(NCC5CCOCC5)c([N+](=O)[O-])c4)c(Oc4cnc5[nH]ccc5c4)c3)CC2)=C(c2ccc(Cl)cc2)C1 | 105% [middle of 4 runs] | 110% [middle of 4 runs] | 101% [middle of 4 runs] | 112% [middle of 4 runs] | 130% [middle of 4 runs] |  | > 10 µM and 7.28 µM and 6.4 µM |  |  | 
10 | CC1(C)CCC(Nc2ncc(C(F)(F)F)c(-c3c[nH]c4c(P(C)(C)=O)c(C#N)ccc34)n2)CN1 (configuration not stated) | 79.6% [middle of 4 runs] |  |  |  |  | 12.7% [middle of 4 runs] | 5.16 µM [middle of 4 runs] |  |  | 
11 | CCCS(=O)(=O)Nc1ccc(F)c(C(=O)c2c[nH]c3ncc(-c4ccc(Cl)cc4)cc23)c1F | 105% [middle of 4 runs] | 97.1% [middle of 4 runs] |  | 102% [middle of 4 runs] | 103% [middle of 4 runs] |  | 6.88 µM [middle of 4 runs] |  |  | 
12 | CCN1CCN(Cc2ccc(Nc3ncc(F)c(-c4cc(F)c5nc(C)n(C(C)C)c5c4)n3)nc2)CC1 | 97.6% [middle of 4 runs] | 107% [middle of 4 runs] | 110% [middle of 4 runs] | 99.2% [middle of 4 runs] |  |  | > 1 µM | 91.2% [middle of 4 runs] | 103% and 85.4% and 90.3% (2×) | 
13 | CNC(=O)c1ccc(N2C(=S)N(c3ccc(C#N)c(C(F)(F)F)c3)C(=O)C2(C)C)cc1F | 100% (2×) and 113% and 95% | 108% [middle of 4 runs] | 104% [middle of 4 runs] |  | 113% (2×) and 102% and 121% | 109% [middle of 4 runs] | > 10 µM |  |  | 
14 | COc1c(OCCCN2CCOCC2)ccc2c3n(c(=NC(=O)c4cnc(N)nc4)nc12)CCN3 | 95.7% [middle of 8 runs] | 39.7% [middle of 8 runs] | 19.6% [middle of 8 runs] | 16.4% [middle of 8 runs] |  |  |  | 96% [middle of 8 runs] | 96.8% [middle of 8 runs] | IC50 [2]: 80.4 nM [middle of 8 runs]
15 | C[C@@H](NC(=O)c1ncnc(N)c1Cl)c1ncc(C(=O)Nc2cc(C(F)(F)F)c(Cl)cn2)s1 | 94.2% [middle of 4 runs] | 104% [middle of 4 runs] | 101% (2×) and 91.3% and 98.2% | 105% [middle of 4 runs] | 106% [middle of 4 runs] | 108% [middle of 4 runs] | > 10 µM |  |  | 
16 | Cc1nc(NC(=O)N2CCCC2C(N)=O)sc1-c1ccnc(C(C)(C)C(F)(F)F)c1 (configuration not stated) | 90% [middle of 7 runs] | 96% [middle of 8 runs] | 99.1% [middle of 8 runs] | 103% [middle of 8 runs] | 106% [middle of 8 runs] | 62.1% [middle of 8 runs] |  |  |  | IC50 [1]: > 10 µM
17 | Cn1cnc2c(F)c(Nc3ccc(Br)cc3Cl)c(C(=O)NOCCO)cc21 |  |  |  |  |  |  | > 3 µM |  |  | viability, T/C (compound 0.00949 µM): 103% [middle of 4 runs]; viability, T/C (compound 0.03 µM): 109% [middle of 4 runs]; viability, T/C (compound 0.0949 µM): 116% [middle of 4 runs]; viability, T/C (compound 0.3 µM): 119% (2×) and 99.5% and 130%; viability, T/C (compound 0.949 µM): 108% [middle of 4 runs]
18 | Cn1ncc(Cl)c1-c1cc(C(=O)NC(CN)Cc2cccc(F)c2)sc1Cl (configuration not stated) | 100% (2×) and 98.4% and 89.2% | 98.1% [middle of 4 runs] | 97.4% [middle of 4 runs] |  | 59.7% [middle of 4 runs] | 50.4% [middle of 4 runs] |  |  |  | 
19 | Cn1nccc1Nc1nccc(-c2ccn(C(CO)c3ccc(Cl)c(F)c3)c(=O)c2)n1 (configuration not stated) | 95.4% [middle of 4 runs] | 104% [middle of 4 runs] |  | 111% [middle of 4 runs] | 136% (2×) and 113% and 127% |  | > 10 µM |  |  | 
20 | Cn1ncnc1[C@H]1c2n[nH]c(=O)c3cc(F)cc(c23)N[C@@H]1c1ccc(F)cc1 | 98.2% and 92.9% and 117% | 110% and 96.3% and 103% |  |  |  |  | > 0.1 µM | 99.4% and 89% and 90.5% | 86.2% and 91.3% and 94.7% | viability, T/C (compound 0.000316 µM): 101% and 102% and 91.8%; viability, T/C (compound 0.001 µM): 91.2% and 106% and 101%
